One assay concerns HCV1b replicon. As to the kind of experiment: HCV Replicon Assay and EC50 Determination (Huh-7 cells, luciferase reporter). In kind it is cell-based. The following applies: Hepatitis C virus; Huh-7 cell line with HCV1b replicon containing luciferase reporter, 72 hr, triplicate assays. As to the method: HCV Replicon Assay and EC50 Determination
The antiviral activity of compounds against hepatitis C virus was determined by a hepatitis C virus replicon reporter cell line developed by Bartenschlager (Lohmann et al., Science 1999, 285:110-113). This cell-based assay utilized a liver cell carcinoma (Huh-7) cell line stably transformed with an HCV1b replicon containing a luciferase reporter gene. Varied concentrations of compounds were added to the reporter cell line, and further incubated at 37° C. for 72 hr in DMEM supplemented with 10% FCS. The inhibitory effects of experimental compounds or the reference compound, interferon alpha (INFα), on HCV replication were measured by luciferase activity using the Britelite™ plus luminescence reporter gene kit (Perkin Elmer, Shelton, Conn.). The Britelite plus reagent was added to the 96-well plates containing the HCV reporter cells, and luminescence was measured within 15 min using a Wallac 1450 Microbeta® Trilux liquid scintillation counter. EC50 values were calculated using GraFit 6 and GraphPad Prism 5 from triplicate HCV replicon assays.
On the technique in general: A replicon is a self-replicating genome or part of one, used to study replication in cells.

For assay [1], the target named is T1, HCV1b NS5B polymerase delta 21 (Hepatitis C virus genotype 1b, UniProt P26663).
T1 construct: purified HCV1b NS5B polymerase delta 21
T1 sequence (P26663 2420-2989): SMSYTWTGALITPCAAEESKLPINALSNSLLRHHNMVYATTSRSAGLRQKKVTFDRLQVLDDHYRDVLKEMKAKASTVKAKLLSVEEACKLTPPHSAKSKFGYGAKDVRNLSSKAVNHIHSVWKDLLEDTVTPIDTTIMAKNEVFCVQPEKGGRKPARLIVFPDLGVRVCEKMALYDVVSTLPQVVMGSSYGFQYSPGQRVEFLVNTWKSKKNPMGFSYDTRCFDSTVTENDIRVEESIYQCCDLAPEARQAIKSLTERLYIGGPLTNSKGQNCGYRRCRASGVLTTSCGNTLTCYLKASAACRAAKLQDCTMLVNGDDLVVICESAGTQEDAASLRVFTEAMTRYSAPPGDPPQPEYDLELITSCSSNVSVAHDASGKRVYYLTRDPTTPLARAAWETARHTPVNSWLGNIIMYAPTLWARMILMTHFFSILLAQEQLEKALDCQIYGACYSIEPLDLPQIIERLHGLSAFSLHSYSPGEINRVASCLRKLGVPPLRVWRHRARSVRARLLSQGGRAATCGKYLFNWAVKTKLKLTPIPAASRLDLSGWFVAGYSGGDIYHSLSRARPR
As to the kind of experiment: RNA-Dependent RNA HCV NS5B (Polymerase) Assay and IC50 Determination. In kind it is biochemical. The method, boiled down: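 Purified NS5B Δ21 (0.6 μg) with polyA:U16 template, 10 μM UTP plus α-32P UTP in Tris-HCl pH 7.5, 5 mM MgCl2, 0.5% Triton X-100, 60 min at 23°C with varied compound concentrations. Radiolabelled RNA captured on filters, quantified by phosphorimaging; IC50 from triplicate assays.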

pEC50, pIC50: −log10 of the molar value.

Regarding `CC1CC=C(C2=C(c3cc(-c4ccccc4)sc3C(=O)O)CCN(C)C2)CC1` (stereo not drawn) [Example 109, 3-[1-Methyl-5-(4-methyl-cyclohex-1-enyl)-1,2,3,6-tetrahydro-pyridin-4-yl]-5-phenyl-thiophene-2-carboxylic acid], in the assay with HCV1b replicon, the pEC50 was less than 5.00. Also, the pIC50 in assay [1] is more than 5.52.

Compound `CC1CCC(C2=C(c3cc(-c4ccc(NC(=O)c5cscn5)cc4)sc3C(=O)O)CCN(C)C2)CC1` (stereo not drawn) [Example 013, 3-[1-Methyl-5-(4-methyl-cyclohexyl)-1,2,3,6-tetrahydro-pyridin-4-yl]-5-{4-[(thiazole-4-carbonyl)-amino]-phenyl}-thiophene-2-carboxylic acid] had a pEC50 in the assay on HCV1b replicon of more than 5.52. Further, the pIC50 in assay [1] was more than 5.52.

In the case of `CC1CCC(C2=C(c3cc(-c4ccc(-c5cc6ncccn6n5)cc4)sc3C(=O)O)CCN(C)C2)CC1` (stereo not drawn) [Example 005, 3-[1-Methyl-5-(4-methyl-cyclohexyl)-1,2,3,6-tetrahydro-pyridin-4-yl]-5-(4-pyrazolo[1,5-a]pyrimidin-2-yl-phenyl)-thiophene-2-carboxylic acid], the pEC50 in the assay on HCV1b replicon was more than 5.52. In addition, in assay [1], the pIC50 is more than 5.52.

On to `CC1CCC(C2=C(c3cc(-c4ccccc4)sc3C(=O)O)CCN(C)C2)CC1` (stereo not drawn) [Example 001, 3-[1-Methyl-5-(4-methyl-cyclohexyl)-1,2,3,6-tetrahydro-pyridin-4-yl]-5-phenyl-thiophene-2-carboxylic acid], for which the pEC50 in the assay with HCV1b replicon was more than 5.52. This compound had a negative logarithm of the IC50 (pIC50) in assay [1] of more than 5.52.

With `CC1CCC(C2=C(c3cc(C#CC(C)(C)C)sc3C(=O)O)CCN(C)C2)CC1` (stereo not drawn) [Example 003, 5-(3,3-Dimethyl-but-1-ynyl)-3-[1-methyl-5-(4-methyl-cyclohexyl)-1,2,3,6-tetrahydro-pyridin-4-yl]-thiophene-2-carboxylic acid], the pEC50 in the assay with HCV1b replicon is more than 5.52. This compound also gave a pIC50 in assay [1] of more than 5.52.

`Cc1cc(C)n2nc(CN3CCC(c4cc(-c5ccc(NC(=O)c6cscn6)cc5)sc4C(=O)O)=C(C4CCC(C)CC4)C3)nc2n1` (stereo not drawn) [Example 130, 3-[1-(5,7-Dimethyl-[1,2,4]triazolo[1,5-a]pyrimidin-2-ylmethyl)-5-(4-methyl-cyclohexyl)-1,2,3,6-tetrahydro-pyridin-4-yl]-5-{4-[(thiazole-4-carbonyl)-amino]-phenyl}-thiophene-2-carboxylic acid] showed a pEC50 with HCV1b replicon of more than 5.52. The same compound had a pIC50 in assay [1] of more than 5.52.

The pEC50 is the EC50 on a negative log10 scale, so that one unit is a factor of ten. The low end stands for a high EC50, the high end for a low EC50. In general, pIC50 refers to the IC50 on a negative log10 scale, so that one unit is a factor of ten. A high value points to a low IC50.

The values are drawn from patent publication US8771665B2 (Cocrystal Discovery, Inc., priority 2010, dated 2014).
